# In patent publication US4950602A, “Inhibition of lactate production by pyruvate adducts” (Cornell Research Foundation, Inc., priority 1987, dated 1990):
# “Also recorded” adds a separate entry of the source. Like-named read-outs stand apart in the source and are kept apart here.
# Columns and labels:
# [1] = target: T1, bovine heart pyruvate dehydrogenase complex (Bos taurus, UniProt A7MB35+F1N206+P11966); test: Purified bovine heart pyruvate dehydrogenase complex with RAP; type: biochemical; conditions: 20 μM RAP
# T1 construct: overall NADH-forming activity assayed at 340 nm
# Description: (§1) Enzymes and enzyme assays. Rabbit muscle glyceraldehyde-3-phosphate dehydrogenase (80 U/mg: ammonium sulfate suspension), rabbit muscle glycerol-3-phosphate dehydrogenase (40 U/mg; ammonium sulfate suspension),beef liver glutamate dehydrogenase (120 U/mg: in 50% glycerol), mitochondrial pig heart malate dehydrogenase (1100 U/mg; in 50% glycerol) and yeast hexokinase (140 U/mg; ammonium sulfate suspension) were purchased from Boehringer Mannheim Corp. (Indianapolis). Beef heart lactate dehydrogenase (280 U/mg) was purchased from Worthington Biochemical Corporation (Freehold, N.J.). Porcine heart L-alanine aminotransferase (130 U/mg), rabbit muscle phosphofructokinase (140 U/mg; ammonium sulfate suspension), bovine heart α-ketoglutarate (8 U/mg) and pyruvate (5 U/mg) dehydrogenase complexes, sodium pyruvate, L-methionine-SR-sulfoximine, DL-vinylglycine, NAD^+, NADH and NAD^+ analogues (3-acetylpyridine, thionicotinamide, and 3-pyridinealdehyde adenine dinucleotides) were purchased from Sigma Chemical Company (St. Louis, Mo.).
# (§2) Each of the enzymes was assayed by procedures in which change of absorbance at 340 nm due to NADH was followed essentially as described by Bergmeyer (1974, Methods of Enzymatic Analysis, 2nd Eng. Ed., Verlag Chemie Weinheim Academic Press, N.Y.) with the following exceptions. […]
# [2] = target: rat brain lactate dehydrogenase; test: Inhibition of rat brain lactate dehydrogenase (rat brain homogenate); type: biochemical; conditions: in the presence of either 0.2 or 2 mM pyruvate and 0.1 mM NADH
# pyruvate dehydrogenase = target: T2, pyruvate dehydrogenase (Rattus norvegicus, UniProt P26284+P49432+Q6P6R2); test: Rat brain pyruvate dehydrogenase with RAP; type: biochemical; conditions: 20 μM RAP
# T2 construct: from tissue; host or cells: rat brain
# Protocol: (§3) Each of the enzymes was assayed by procedures in which change of absorbance at 340 nm due to NADH was followed essentially as described by Bergmeyer (1974, Methods of Enzymatic Analysis, 2nd Eng. Ed., Verlag Chemie Weinheim Academic Press, N.Y.) with the following exceptions. Phosphofructokinase was assayed according to the method of Lai et al (1984, J. Neurochem., 42:438-446). NAD^+ -linked isocitrate dehydrogenase was assayed as described by Lai and Clark (1976, Biochem. J., 154:423-432). Pyruvate and α-ketoglutarate dehydrogenase complexes were respectively assayed according to the methods of Lai and Sheu (1985, J. Neurochem., 45:1861-1868) and Lai and Cooper (1986) (J. Neurochem, 47:1376-1386).
# [3] = target: T3, cytosolic malate dehydrogenase (Rattus norvegicus, UniProt O88989); test: Rat brain cytosolic (soluble) malate dehydrogenase with RAP; type: biochemical; conditions: 20 μM RAP
# T3 construct: following enzymes in rat brain subcellular fractions: α-ketoglutarate, isocitrate and cytosolic malate dehydrogenases; from tissue; host or cells: rat brain subcellular fractions
# Protocol: as §3
# [4] = target: T4, bovine heart α-ketoglutarate dehydrogenase complex (Bos taurus, UniProt F1N206); test: Purified bovine heart α-ketoglutarate dehydrogenase complex with RAP; type: biochemical; conditions: 20 μM RAP
# T4 construct: purchased Sigma Chemical Company (St. Louis, Mo.); host or cells: bovine heart
# Description: as §1, §2
# [5] = target: T5, glyceraldehyde-3-phosphate dehydrogenase (Rattus norvegicus, UniProt P04797); test: Rat brain glyceraldehyde-3-phosphate dehydrogenase with RAP; type: biochemical; conditions: 20 μM RAP
# T5 construct: from tissue; host or cells: rat brain
# Protocol: as §3
# [6] = target: T6, beef liver glutamate dehydrogenase (Bos taurus, UniProt P00366); test: Commercial glutamate dehydrogenase with RAP; type: biochemical; conditions: 20 μM RAP
# T6 construct: purchased Boehringer Mannheim Corp. (Indianapolis); host or cells: beef liver
# Description: as §1, §2
# [7] = system: rat brain lactate dehydrogenase; test: Inhibition of rat brain lactate dehydrogenase (rat brain homogenate); type: biochemical; conditions: for Relative Activity (%) Rat Brain: rat brain homogenate, 0.24 mM pyruvate, 0.1 mM NADH, pH 7.2, 25° C.
# Protocol: as §3
# (§4) The reaction mixture (1 ml) contained 0.24 mM sodium pyruvate, 0.1 mM
# (§5) NADH, 100 mM potassium phosphate buffer (pH 7.2) and either purified
# (§6) bovine heart lactate dehydrogenase (0.01 U) or rat brain homogenate
# (§7) containing ~0.02 U of lactate dehydrogenase activity; 25° C.
# (§8) Since APADpyruvate adduct and RAP have a tendency to revert to pyruvate
# (§9) they were added to the reaction mixture just prior to addition of enzyme.
# (§10) Because the kinetics obtained with tightbinding inhibitors depends on the
# (§11) order of addition of substrates and inhibitors the enzyme was always adde
# (§12) last. Each value is the average of at least 3 determinations. Each of the […]
# rats = test: Effects of RAP in vivo, intravenous administration to rats; set-up: species or system rat; conditions: 20 μmole/kg
# Protocol: Animals. Brain tissue was obtained from young adult male Wistar rats (45-50 days old). In one series of experiments, rats that had previously been fed ad libidum were anesthetized with 4% halothane and a V-3 cannula was inserted in the femoral vein. The animals were immobilized by taping them to a lead brick. After they had recovered sufficiently, they were injected with the RAP solution. After initial observation for any side-reactions, the rats were untaped and their wounds were closed under anesthesia. The rats were then placed back in their cages for further observation.
# The animals survived for 3 weeks before being killed.
# [8] = target: T7, α-ketoglutarate dehydrogenase (Rattus norvegicus, UniProt Q5XI78+Q6P6R2); test: Rat brain α-ketoglutarate dehydrogenase with RAP; type: biochemical; conditions: 20 μM RAP
# T7 construct: following enzymes in rat brain subcellular fractions: α-ketoglutarate; from tissue; host or cells: rat brain subcellular fractions
# Protocol: as §3
# lactate dehydrogenase = test: Determination of inactive E.RAP enzyme complex; type: biochemical, rat; conditions: 2 μM initial concentration
# [9] = target: T8, beef heart lactate dehydrogenase (Bos taurus, UniProt Q5E9B1); test: Inhibition of beef heart lactate dehydrogenase (NADH absorbance at 340 nm); type: biochemical, bovine; conditions: for Relative Activity (%) Beef Heart: 0.24 mM pyruvate, 0.1 mM NADH, pH 7.2, 25° C.
# T8 construct: purchased Worthington Biochemical Corporation (Freehold, N.J.); host or cells: beef heart
# Description: as §1, §3, §4, §5, §6, §7, §8, §9, §10, §11, §12
# T8 sequence (Q5E9B1 whole entry): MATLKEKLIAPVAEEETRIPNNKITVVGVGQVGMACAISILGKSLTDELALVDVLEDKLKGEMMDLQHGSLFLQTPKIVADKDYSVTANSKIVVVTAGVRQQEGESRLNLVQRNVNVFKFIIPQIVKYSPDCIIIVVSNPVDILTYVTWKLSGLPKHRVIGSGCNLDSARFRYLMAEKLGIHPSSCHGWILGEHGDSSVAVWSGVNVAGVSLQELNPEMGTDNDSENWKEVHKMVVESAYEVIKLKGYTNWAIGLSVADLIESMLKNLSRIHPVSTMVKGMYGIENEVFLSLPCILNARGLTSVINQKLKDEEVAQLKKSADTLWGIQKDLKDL
# T3 sequence (O88989 whole entry): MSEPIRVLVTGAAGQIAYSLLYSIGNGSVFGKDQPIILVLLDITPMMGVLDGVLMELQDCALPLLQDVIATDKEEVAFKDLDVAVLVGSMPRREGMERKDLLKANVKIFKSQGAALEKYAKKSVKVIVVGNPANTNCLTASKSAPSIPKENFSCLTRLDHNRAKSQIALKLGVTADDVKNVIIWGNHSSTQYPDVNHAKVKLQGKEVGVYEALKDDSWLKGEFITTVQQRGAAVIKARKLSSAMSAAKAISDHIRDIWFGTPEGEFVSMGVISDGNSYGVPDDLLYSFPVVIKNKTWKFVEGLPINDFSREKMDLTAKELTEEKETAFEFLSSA
# T7 sequence (Q5XI78 41-1023): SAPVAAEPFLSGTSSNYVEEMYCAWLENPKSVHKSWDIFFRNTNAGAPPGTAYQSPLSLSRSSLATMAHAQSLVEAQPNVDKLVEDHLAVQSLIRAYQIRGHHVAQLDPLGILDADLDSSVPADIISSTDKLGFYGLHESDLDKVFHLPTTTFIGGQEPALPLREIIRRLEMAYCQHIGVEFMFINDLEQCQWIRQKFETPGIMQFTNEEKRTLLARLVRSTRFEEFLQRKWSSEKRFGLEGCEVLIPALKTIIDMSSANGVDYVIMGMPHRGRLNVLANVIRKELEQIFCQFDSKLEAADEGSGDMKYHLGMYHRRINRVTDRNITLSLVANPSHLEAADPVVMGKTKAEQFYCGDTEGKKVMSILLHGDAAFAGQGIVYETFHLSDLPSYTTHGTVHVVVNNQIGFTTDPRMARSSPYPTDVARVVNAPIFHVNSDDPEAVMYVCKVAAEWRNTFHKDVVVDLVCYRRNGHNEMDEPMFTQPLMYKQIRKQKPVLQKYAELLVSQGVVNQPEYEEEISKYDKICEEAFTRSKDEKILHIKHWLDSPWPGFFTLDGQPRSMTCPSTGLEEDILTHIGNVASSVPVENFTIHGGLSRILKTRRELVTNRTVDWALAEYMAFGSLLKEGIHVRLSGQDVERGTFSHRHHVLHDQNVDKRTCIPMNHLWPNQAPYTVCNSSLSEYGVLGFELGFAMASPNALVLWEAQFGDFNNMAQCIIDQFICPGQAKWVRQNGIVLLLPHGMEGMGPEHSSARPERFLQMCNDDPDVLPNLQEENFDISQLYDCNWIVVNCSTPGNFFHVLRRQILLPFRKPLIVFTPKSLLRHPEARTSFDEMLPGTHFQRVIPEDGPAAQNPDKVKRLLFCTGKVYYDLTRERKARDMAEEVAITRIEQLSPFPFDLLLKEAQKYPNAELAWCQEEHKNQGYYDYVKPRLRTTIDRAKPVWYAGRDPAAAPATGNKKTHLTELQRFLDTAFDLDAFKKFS
# T7 sequence (Q01205 69-454 partner): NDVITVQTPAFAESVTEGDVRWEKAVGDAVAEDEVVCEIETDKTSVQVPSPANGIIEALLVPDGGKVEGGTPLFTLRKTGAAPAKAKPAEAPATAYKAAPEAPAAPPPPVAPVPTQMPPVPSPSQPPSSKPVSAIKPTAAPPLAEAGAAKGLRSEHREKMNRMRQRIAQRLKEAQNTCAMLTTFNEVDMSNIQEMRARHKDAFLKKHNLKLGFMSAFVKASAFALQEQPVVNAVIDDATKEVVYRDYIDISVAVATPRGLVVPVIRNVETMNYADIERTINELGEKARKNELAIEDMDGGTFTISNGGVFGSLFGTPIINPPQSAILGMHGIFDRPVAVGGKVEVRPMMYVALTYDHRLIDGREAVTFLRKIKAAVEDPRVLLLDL
# T7 sequence (Q6P6R2 36-509): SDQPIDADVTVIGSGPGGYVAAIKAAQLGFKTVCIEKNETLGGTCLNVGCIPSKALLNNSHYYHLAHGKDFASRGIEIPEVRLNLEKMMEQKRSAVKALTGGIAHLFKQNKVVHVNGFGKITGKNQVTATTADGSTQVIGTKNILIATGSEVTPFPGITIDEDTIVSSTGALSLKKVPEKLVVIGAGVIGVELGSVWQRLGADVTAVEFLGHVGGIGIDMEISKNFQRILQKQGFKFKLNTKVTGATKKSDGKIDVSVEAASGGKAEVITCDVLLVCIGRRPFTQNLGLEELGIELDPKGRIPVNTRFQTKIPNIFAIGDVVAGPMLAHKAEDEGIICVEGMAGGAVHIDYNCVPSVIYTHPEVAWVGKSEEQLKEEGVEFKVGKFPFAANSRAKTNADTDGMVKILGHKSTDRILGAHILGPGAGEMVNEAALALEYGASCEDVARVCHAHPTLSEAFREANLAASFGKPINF
# T1 sequence (A7MB35 30-390): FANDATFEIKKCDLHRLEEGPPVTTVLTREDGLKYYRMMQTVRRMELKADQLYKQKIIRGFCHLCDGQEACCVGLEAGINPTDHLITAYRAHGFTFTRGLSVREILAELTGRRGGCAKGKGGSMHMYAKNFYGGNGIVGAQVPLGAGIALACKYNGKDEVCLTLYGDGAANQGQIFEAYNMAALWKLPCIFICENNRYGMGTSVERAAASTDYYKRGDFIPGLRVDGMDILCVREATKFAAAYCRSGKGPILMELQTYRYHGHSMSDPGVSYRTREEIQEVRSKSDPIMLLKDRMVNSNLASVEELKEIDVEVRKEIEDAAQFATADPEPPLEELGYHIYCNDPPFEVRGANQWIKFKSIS
# T1 sequence (P11966 31-359): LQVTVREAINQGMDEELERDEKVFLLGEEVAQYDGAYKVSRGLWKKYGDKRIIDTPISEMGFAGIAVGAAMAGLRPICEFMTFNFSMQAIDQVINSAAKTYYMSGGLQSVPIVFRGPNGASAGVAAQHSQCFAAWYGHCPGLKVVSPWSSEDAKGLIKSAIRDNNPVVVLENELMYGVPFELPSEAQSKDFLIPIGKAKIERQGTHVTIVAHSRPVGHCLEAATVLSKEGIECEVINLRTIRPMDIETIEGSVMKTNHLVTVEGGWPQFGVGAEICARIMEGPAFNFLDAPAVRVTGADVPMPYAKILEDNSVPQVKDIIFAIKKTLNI
# T1 sequence (F1N206 36-509): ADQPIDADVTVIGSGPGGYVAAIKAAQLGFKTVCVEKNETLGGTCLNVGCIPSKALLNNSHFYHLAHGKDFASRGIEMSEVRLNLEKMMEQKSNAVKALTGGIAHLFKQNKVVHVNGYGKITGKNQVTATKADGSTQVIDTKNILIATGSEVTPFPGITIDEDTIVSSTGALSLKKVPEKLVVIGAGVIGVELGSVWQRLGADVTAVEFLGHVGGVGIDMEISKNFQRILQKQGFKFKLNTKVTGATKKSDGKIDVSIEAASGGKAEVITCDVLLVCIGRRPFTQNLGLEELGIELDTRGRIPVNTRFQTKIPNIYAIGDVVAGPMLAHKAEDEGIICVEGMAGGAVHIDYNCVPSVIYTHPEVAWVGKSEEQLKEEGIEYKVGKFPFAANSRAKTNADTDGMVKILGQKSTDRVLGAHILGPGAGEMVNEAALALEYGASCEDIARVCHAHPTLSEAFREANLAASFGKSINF
# T1 sequence (P11180 87-647 partner): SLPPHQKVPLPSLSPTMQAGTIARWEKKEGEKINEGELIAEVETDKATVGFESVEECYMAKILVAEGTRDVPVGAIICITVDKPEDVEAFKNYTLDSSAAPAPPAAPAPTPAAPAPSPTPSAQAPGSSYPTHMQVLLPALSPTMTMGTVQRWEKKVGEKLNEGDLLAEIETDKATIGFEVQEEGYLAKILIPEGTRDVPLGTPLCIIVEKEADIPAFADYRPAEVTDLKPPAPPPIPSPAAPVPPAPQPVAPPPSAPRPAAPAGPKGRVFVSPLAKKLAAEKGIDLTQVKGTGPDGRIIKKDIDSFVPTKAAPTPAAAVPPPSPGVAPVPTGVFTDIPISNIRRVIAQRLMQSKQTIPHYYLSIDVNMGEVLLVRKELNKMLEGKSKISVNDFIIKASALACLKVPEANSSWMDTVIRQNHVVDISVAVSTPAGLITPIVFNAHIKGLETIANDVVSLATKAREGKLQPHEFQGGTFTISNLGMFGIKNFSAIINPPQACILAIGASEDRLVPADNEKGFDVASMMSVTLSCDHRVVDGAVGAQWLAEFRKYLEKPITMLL
# T1 sequence (P22439 54-501 partner): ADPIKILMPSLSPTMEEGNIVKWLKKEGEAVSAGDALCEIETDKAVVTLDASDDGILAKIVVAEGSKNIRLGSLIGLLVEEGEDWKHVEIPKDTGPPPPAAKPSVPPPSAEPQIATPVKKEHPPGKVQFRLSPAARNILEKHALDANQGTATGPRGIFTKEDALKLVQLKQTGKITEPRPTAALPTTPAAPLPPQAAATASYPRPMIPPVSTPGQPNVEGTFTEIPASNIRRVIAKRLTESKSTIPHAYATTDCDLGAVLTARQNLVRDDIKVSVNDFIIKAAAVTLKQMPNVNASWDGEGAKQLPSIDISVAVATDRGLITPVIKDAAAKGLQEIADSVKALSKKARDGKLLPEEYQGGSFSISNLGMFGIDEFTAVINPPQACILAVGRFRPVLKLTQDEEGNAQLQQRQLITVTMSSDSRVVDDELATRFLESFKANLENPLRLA
# T4 sequence (F1N206 36-509, one chain of several): as the sequence (F1N206 36-509) above
smiles,measurement,setting,value
"Nc1ncnc2c1ncn2[C@@H]1O[C@H](COP(=O)(O)OP(=O)(O)OC[C@H]2O[C@@H](N3C=CC(CC(=O)C(=O)O)C(C=O)=C3)[C@H](O)[C@@H]2O)[C@@H](O)[C@H]1O (some centres unmarked) [RAP, 3(-4-(reduced 3-pyridinealdehyde-adeninedinucleotide))-pyruvate]",effect on purified bovine heart pyruvate dehydrogenase complex,[1],nor did 20 μM RAP inhibit
same,IC50,[2],~100 nM
same,effect on rat brain pyruvate dehydrogenase,pyruvate dehydrogenase,little or no effect
same,effect on rat brain cytosolic (soluble) malate dehydrogenase,[3],little or no effect; also recorded: did not inhibit
same,effect on purified bovine heart α-ketoglutarate dehydrogenase complex,[4],nor did 20 μM RAP inhibit
same,effect on rat brain glyceraldehyde-3-phosphate dehydrogenase,[5],little or no effect
same,inhibition at 20 µM,[6],≤ 20%
same,Relative Activity (%) Rat Brain,[7]; additive 42 nM,80%
same,Relative Activity (%) Rat Brain,[7]; additive 84 nM,56%
same,Relative Activity (%) Rat Brain,[7]; additive 132 nM,43%
same,Relative Activity (%) Rat Brain,[7]; additive 180 nM,30%
same,IC50,"[7]; standard reaction of Table 1, read-out: concentration required to inhibit the standard reaction by 50%",~100 nM
same,side effects as judged by gross inspection of behavior,rats,no noticeable untoward effects; also recorded: no side effects were noted
same,survival before being killed,rats,3 weeks
same,growth and feeding after injection,rats; 3 weeks,grew and fed normally
same,gross post-mortem examination,rats; after 3 weeks,no obvious tissue damage
same,effect on rat brain α-ketoglutarate dehydrogenase,[8],little or no effect; also recorded: did not inhibit
same,enzyme tied up as the inactive E.RAP complex,lactate dehydrogenase,approximately 90%
same,Ki,"[9]; Ki for the A form, A isomer at the 4 position, taken as half of the mixture, calculated from Table 1 data",1.3 nM
same,Ki,"[9]; Ki, calculated from Table 1 data with Km for NADH 2.5 μM, standard equation for a competitive inhibitor",2.6 nM
same,Relative Activity (%) Beef Heart,[9]; additive 42 nM,79%
same,Relative Activity (%) Beef Heart,[9]; additive 84 nM,58%
same,Relative Activity (%) Beef Heart,[9]; additive 132 nM,40%
same,Relative Activity (%) Beef Heart,[9]; additive 180 nM,29%
same,potency as inhibitor of lactate dehydrogenase relative to the NAD-pyruvate adduct,[9]; from Table 1,~ 1000 fold
same,type of inhibition with respect to pyruvate,[9]; suggested by the 2.4 mM pyruvate finding,noncompetitive inhibitor with respect to pyruvate
